Experimental data: ChEMBL document CHEMBL1201862, “PubChem BioAssay data set” (2004)
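Protocol summary: plate cells (96-well), add compound at 5 concentrations, incubate 48 h, interpolate endpoints linearly. GI50 marks 50% less growth.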 The source made the active and inactive calls. Rule as the data show it: active = GI50 up to about 1.1 µM and inactive = higher.

Tests used:
Assay in all cases: NCI anticancer screen, dose series, 48 h
OVCAR-3 = test system: OVCAR-3
UACC-257 = test system: UACC-257
OVCAR-5 = test system: OVCAR-5
NCI-H522 = test system: NCI-H522
RXF 393 = test system: RXF 393
K562 = test system: K562
ACHN = test system: ACHN
SF-295 = test system: SF-295
OVCAR-8 = test system: OVCAR-8
UO-31 = test system: UO-31
SK-MEL-28 = test system: SK-MEL-28
NCI-H23 = test system: NCI-H23
PC-3 = test system: PC-3
SNB-75 = test system: SNB-75
BT-549 = test system: BT-549
MDA-MB-435 = test system: MDA-MB-435
SN12C = test system: SN12C
HCT-116 = test system: HCT-116
CCRF-CEM = test system: CCRF-CEM
Hs-578T = test system: Hs-578T

Structure (SMILES)	GI50 (OVCAR-3)	GI50 (UACC-257)	GI50 (OVCAR-5)	GI50 (NCI-H522)	GI50 (RXF 393)	GI50 (K562)	GI50 (ACHN)	GI50 (SF-295)	GI50 (OVCAR-8)	GI50 (UO-31)	GI50 (SK-MEL-28)	GI50 (NCI-H23)	GI50 (PC-3)	GI50 (SNB-75)	GI50 (BT-549)	GI50 (MDA-MB-435)	GI50 (SN12C)	GI50 (HCT-116)	GI50 (CCRF-CEM)	GI50 (Hs-578T)
Cc1cc(Cc2cc(C)c(N)cc2N)c(N)cc1N	> 100 µM (inactive)	> 100 µM (inactive)	> 100 µM (inactive)	88.9 µM (inactive)	> 100 µM (inactive)	> 100 µM (inactive)	> 100 µM (inactive)	> 100 µM (inactive)	94.4 µM (inactive)	> 100 µM (inactive)	> 100 µM (inactive)	28.2 µM (inactive)	> 100 µM (inactive)	> 100 µM (inactive)	> 100 µM (inactive)	99.3 µM (inactive)	> 100 µM (inactive)	> 100 µM (inactive)		
CN(C(=O)C1=CCC2(CC1)OCCO2)c1ccccc1OS(=O)(=O)C(F)(F)F	> 100 µM (inactive)	> 100 µM (inactive)	> 100 µM (inactive)		> 100 µM (inactive)	> 100 µM (inactive)	> 100 µM (inactive)	90.2 µM (inactive)	81.5 µM (inactive)	> 100 µM (inactive)	> 100 µM (inactive)	> 100 µM (inactive)	> 100 µM (inactive)	15.5 µM (inactive)		> 100 µM (inactive)	> 100 µM (inactive)	> 100 µM (inactive)	43.2 µM (inactive)	
Cc1cc2c(s1)C(N)CC2=O (centres undefined)	> 100 µM (inactive)	> 100 µM (inactive)	> 100 µM (inactive)		> 100 µM (inactive)	> 100 µM (inactive)	> 100 µM (inactive)		> 100 µM (inactive)	> 100 µM (inactive)	> 100 µM (inactive)		> 100 µM (inactive)	> 100 µM (inactive)	> 100 µM (inactive)	> 100 µM (inactive)	> 100 µM (inactive)	> 100 µM (inactive)	> 100 µM (inactive)	
CC(C)OC(=O)/C=C/C(=O)O/C=C/[N+](=O)[O-]	31.7 µM (inactive)	19.9 µM (inactive)	37.6 µM (inactive)		18.3 µM (inactive)	7.64 µM (inactive)	> 100 µM (inactive)	27.9 µM (inactive)	15.7 µM (inactive)	36.1 µM (inactive)	26.7 µM (inactive)	26.7 µM (inactive)	26.6 µM (inactive)		41.8 µM (inactive)	38.9 µM (inactive)		17.7 µM (inactive)		
Clc1cccc(Cl)c1C1SCc2nc3ncccc3n21 (centres undefined)	44.1 µM (inactive)	> 100 µM (inactive)	> 100 µM (inactive)	> 100 µM (inactive)	> 100 µM (inactive)	49.5 µM (inactive)	> 100 µM (inactive)	> 100 µM (inactive)	> 100 µM (inactive)	> 100 µM (inactive)	> 100 µM (inactive)	> 100 µM (inactive)	> 100 µM (inactive)	40.6 µM (inactive)		39.4 µM (inactive)	> 100 µM (inactive)	94.6 µM (inactive)	92.3 µM (inactive)	> 100 µM (inactive)
CC(C)(C)OC(=O)n1cc(C2CN(O)C(=O)C23CCC(=O)N3Cc2ccccc2)c2ccccc21 (centres undefined)	66.5 µM (inactive)	64.1 µM (inactive)	46.9 µM (inactive)	14.1 µM (inactive)	68.4 µM (inactive)	78.7 µM (inactive)		78.5 µM (inactive)		40.7 µM (inactive)		61.1 µM (inactive)	28 µM (inactive)	32.7 µM (inactive)		28.6 µM (inactive)	27 µM (inactive)	66.2 µM (inactive)	83.2 µM (inactive)	42.3 µM (inactive)
O=c1cc(CC(O)(C(F)(F)Cl)C(F)(F)Cl)[nH]n1-c1ccccc1		> 100 µM (inactive)	> 100 µM (inactive)		> 100 µM (inactive)	92.3 µM (inactive)	> 100 µM (inactive)	> 100 µM (inactive)	> 100 µM (inactive)	78.9 µM (inactive)	> 100 µM (inactive)	> 100 µM (inactive)		> 100 µM (inactive)		> 100 µM (inactive)	> 100 µM (inactive)	> 100 µM (inactive)	> 100 µM (inactive)	15 µM (inactive)
COc1cc(/C=C/C(=O)OC[C@H](Br)[C@H](OC(C)=O)c2ccc3c(c2)OCO3)cc(OC)c1OC	> 100 µM (inactive)	> 100 µM (inactive)	> 100 µM (inactive)	> 100 µM (inactive)	> 100 µM (inactive)	> 100 µM (inactive)	> 100 µM (inactive)	> 100 µM (inactive)	> 100 µM (inactive)	26 µM (inactive)	> 100 µM (inactive)	> 100 µM (inactive)	86.3 µM (inactive)		> 100 µM (inactive)	> 100 µM (inactive)	> 100 µM (inactive)	> 100 µM (inactive)	> 100 µM (inactive)	
CC1(C)Oc2ccc3c(=O)cc(-c4cccs4)oc3c2C1C(=O)O (centres undefined)	> 100 µM (inactive)	> 100 µM (inactive)	> 100 µM (inactive)	> 100 µM (inactive)	> 100 µM (inactive)	> 100 µM (inactive)		> 100 µM (inactive)	> 100 µM (inactive)			> 100 µM (inactive)	> 100 µM (inactive)			> 100 µM (inactive)	> 100 µM (inactive)	> 100 µM (inactive)	> 100 µM (inactive)	> 100 µM (inactive)
CC[C@]1(Cc2ccc(OC)c(OC)c2)C2CC(C(=O)OC)ON2O[C@H](OCc2ccccc2)[C@@H]1OC(C)=O (some centres undefined)	> 100 µM (inactive)	> 100 µM (inactive)	> 100 µM (inactive)	> 100 µM (inactive)	> 100 µM (inactive)	> 100 µM (inactive)	> 100 µM (inactive)	> 100 µM (inactive)	> 100 µM (inactive)	> 100 µM (inactive)	> 100 µM (inactive)	> 100 µM (inactive)	> 100 µM (inactive)	> 100 µM (inactive)	> 100 µM (inactive)	> 100 µM (inactive)	> 100 µM (inactive)	> 100 µM (inactive)	> 100 µM (inactive)	
CC(C)[Si](OC1=C(C(=O)N(C)c2ccccc2Cl)CCC1)(C(C)C)C(C)C	16.7 µM (inactive)	19 µM (inactive)	9.64 µM (inactive)	14.1 µM (inactive)	18.3 µM (inactive)		19.9 µM (inactive)	14.2 µM (inactive)	17 µM (inactive)	15.8 µM (inactive)	21.5 µM (inactive)	15.7 µM (inactive)		13.3 µM (inactive)	15.8 µM (inactive)	19 µM (inactive)	16.7 µM (inactive)	19.5 µM (inactive)		
CCOC(=O)c1c(N2CCCC2)ncn(C)c1=S	> 100 µM (inactive)	> 100 µM (inactive)	> 100 µM (inactive)	> 100 µM (inactive)	> 100 µM (inactive)	> 100 µM (inactive)	> 100 µM (inactive)	> 100 µM (inactive)	> 100 µM (inactive)	41.6 µM (inactive)	> 100 µM (inactive)	> 100 µM (inactive)	> 100 µM (inactive)			> 100 µM (inactive)	> 100 µM (inactive)	> 100 µM (inactive)	> 100 µM (inactive)	> 100 µM (inactive)
Cc1ccc(/N=N/C(=O)NNc2ccc(C)cc2Br)c(Br)c1	19.9 µM (inactive)	26.8 µM (inactive)	19.4 µM (inactive)	26.1 µM (inactive)		16.4 µM (inactive)	26.7 µM (inactive)		20.5 µM (inactive)	16 µM (inactive)	21.4 µM (inactive)	24.5 µM (inactive)	11.9 µM (inactive)	40.8 µM (inactive)	27.2 µM (inactive)	30.5 µM (inactive)	21.4 µM (inactive)	10.9 µM (inactive)	2.58 µM (inactive)	
C=Cc1nc2nnc(CCCCCCCCc3nnc4nc(C=C)[nH]n34)n2[nH]1	> 100 µM (inactive)	31.4 µM (inactive)	> 100 µM (inactive)		> 100 µM (inactive)	21.6 µM (inactive)	> 100 µM (inactive)	62.5 µM (inactive)	83.8 µM (inactive)	> 100 µM (inactive)	> 100 µM (inactive)	67.8 µM (inactive)	> 100 µM (inactive)	> 100 µM (inactive)	> 100 µM (inactive)	> 100 µM (inactive)	> 100 µM (inactive)	47.2 µM (inactive)	> 100 µM (inactive)	
CCC(=O)OC1=C(c2ccccc2)Sc2ccc(Cl)cc2-n2cccc21		> 10 µM (inactive)			3.24 µM (inactive)	5.75 µM (inactive)		9.62 µM (inactive)	> 10 µM (inactive)		> 10 µM (inactive)	8.2 µM (inactive)	> 10 µM (inactive)	> 10 µM (inactive)		2.22 µM (inactive)	5.05 µM (inactive)		8.89 µM (inactive)	
c1ccc(-c2cccc(-c3ccccn3)n2)nc1 [TERPYRIDINE]	0.316 µM (active)	0.425 µM (active)	0.755 µM (active)	0.489 µM (active)	0.424 µM (active)	0.345 µM (active)	0.385 µM (active)	0.288 µM (active)	0.453 µM (active)	0.197 µM (active)	0.706 µM (active)	0.753 µM (active)	0.409 µM (active)	1.57 µM (inactive)		0.483 µM (active)	0.631 µM (active)	0.344 µM (active)	0.249 µM (active)	7.06 µM (inactive)
